Measurements taken from patent publication US20210395745A1, “RNAI AGENTS FOR HEPATITIS B VIRUS INFECTION” (Arrowhead Pharmaceuticals, Inc., priority 2019, published 2021).

Legend:
[1] = test system: Hepatitis B Virus (HBV); assay: Serum HBV DNA levels in X Region Knockout model mice; details: Example 14, single SC, 2 mg/kg AD04872 with 0.7 to 2 mg/kg AD05070, days 8-22
[2] = test system: Hepatitis B Virus (HBV); assay: Serum HBsAg levels (ELISA) in pHBV model mice; assay type: in vivo, NOD-SCID mice; details: for Average HBsAg levels normalized to pre-treatment and PBS control: 4.0 mg/kg sc day 1, Day 8
Text: Six to eight-week-old female NOD.CB17-Prkdscid/NcrCrl (NOD-SCID) mice were transiently transfected in vivo with MC-HBV1.3 by hydrodynamic tail vein injection (Yang P L et al. “Hydrodynamic injection of viral DNA: a mouse model of acute hepatitis B virus infection,” PNAS USA 2002 Vol. 99: p. 13825-13830), administered 30 to 45 days prior to administration of an HBV RNAi agent or control. MC-HBV1.3 is a plasmid-derived minicircle that contains the same terminally redundant human hepatitis B virus sequence HBV1.3 as in plasmid pHBV1.3 and in the HBV1.3.32 transgenic mice (GenBank accession #V01460) (Guidotti L G et al., “High-level hepatitis B virus replication in transgenic mice,” J Virol 1995 Vol. 69, p 6158-6169.). 5 or 10 μg MC-HBV1.3 in Ringer's Solution in a total volume of 10% of the animal's body weight was injected into mice via tail vein to create pHBV model of chronic HBV infection. The solution was injected through a 27-gauge needle in 5-7 seconds as previously described (Zhang G et al., “High levels of foreign gene expression in hepatocytes after tail vein injection of naked plasmid DNA.” Human Gene Therapy 1999 Vol. 10, p 1735-1737.). At pre-dose (either day 1 pre-dose, day −1, or day −2), Hepatitis B surface antigen (HBsAg) HBsAg expression levels in serum were measured by ELISA and the mice were grouped according to average HBsAg expression levels.
HBV expression levels were normalized to pre-administration expression levels and to control mice injected with phosphate buffered saline (“PBS”).
Mice were anesthetized with 2-3% isoflurane and blood samples were collected from the submandibular area into serum separation tubes (Sarstedt AG & Co., Nümbrecht, Germany). Blood was allowed to coagulate at ambient temperature for 20 min. The tubes were centrifuged at 8,000×g for 3 min to separate the serum and stored at 4° C.
Serum was collected and diluted 10 to 8000-fold in PBS containing 5% nonfat dry milk. […] HBsAg levels were determined with a GS HBsAg EIA 3.0 kit (Bio-Rad Laboratories, Inc., Redmond, Wash.) as described by the manufacturer. […]

[3] = test system: Hepatitis B Virus (HBV); assay: Serum HBsAg levels in X Region Knockout model mice; assay type: in vivo; details: Example 14, single SC, 2 mg/kg AD04872 alone or with 0.7 to 2 mg/kg AD05070, days 8-29
Procedure: Serum was collected and diluted 10 to 8000-fold in PBS containing 5% nonfat dry milk. Secondary HBsAg standards diluted in the nonfat milk solution were prepared from serum of ICR mice (Harlan Sprague Dawley) that had been transfected with 10 μg HBsAg-expressing plasmid pRc/CMV-HBs (Aldevron, Fargo, N. Dak.). HBsAg levels were determined with a GS HBsAg EIA 3.0 kit (Bio-Rad Laboratories, Inc., Redmond, Wash.) as described by the manufacturer. Recombinant HBsAg protein, ayw subtype, also diluted in nonfat milk in PBS, was used as a primary standard (Aldevron).
HBsAg expression for each animal was normalized to the control group of mice injected with PBS in order to account for the non-treatment related decline in expression of MC-HBV1.3. First, the HBsAg level for each animal at a time point was divided by the pre-treatment level of expression in that animal in order to determine the ratio of expression “normalized to pre-treatment”. Expression at a specific time point was then normalized to the control group by dividing the “normalized to pre-treatment” ratio for an individual animal by the average “normalized to pre-treatment” ratio of all mice in the normal PBS control group.

**Q.** “AD05070: HBV RNAi agent duplex: antisense AM06606-AS, sense AM06605-SS (antisense UACCAAUUUAUGCCUACAGCG; sense CGCUGUAGGCAUAAAUUGGUA; chemically modified, pattern not given here)” was tested. Which “serum HBV DNA” value [1] did it give?
**A.** did not diminish the activity of the 2 mg/kg HBV RNAi agent AD04872

**Q.** And the “Average HBsAg levels normalized to pre-treatment and PBS control” value ([2]; Ex 8 Group 6A)?
**A.** 0.058 ± 0.035

**Q.** What about the “Average HBsAg levels normalized to pre-treatment and PBS control” value ([2]; Ex 8 Group 6B) of the same substance?
**A.** 0.117 ± 0.058

**Q.** What about the “HBsAg compared to PBS control” value ([2]; Example 15, pHBV mice, single SC injection, doses per Table 38, days 8-50) of the same substance?
**A.** provided significant knockdown of HBsAg compared to PBS control across each of the time points measured

**Q.** And the “knockdown of HBsAg compared to PBS control” value [3]?
**A.** did not diminish the activity of the 2 mg/kg HBV RNAi agent AD04872
